Measured values published in PMC5532717 (ACS Central Science, 2017).

Target: T1, GBA2 (Homo sapiens, UniProt Q9HCG7)
T1 sequence (Q9HCG7 1-927): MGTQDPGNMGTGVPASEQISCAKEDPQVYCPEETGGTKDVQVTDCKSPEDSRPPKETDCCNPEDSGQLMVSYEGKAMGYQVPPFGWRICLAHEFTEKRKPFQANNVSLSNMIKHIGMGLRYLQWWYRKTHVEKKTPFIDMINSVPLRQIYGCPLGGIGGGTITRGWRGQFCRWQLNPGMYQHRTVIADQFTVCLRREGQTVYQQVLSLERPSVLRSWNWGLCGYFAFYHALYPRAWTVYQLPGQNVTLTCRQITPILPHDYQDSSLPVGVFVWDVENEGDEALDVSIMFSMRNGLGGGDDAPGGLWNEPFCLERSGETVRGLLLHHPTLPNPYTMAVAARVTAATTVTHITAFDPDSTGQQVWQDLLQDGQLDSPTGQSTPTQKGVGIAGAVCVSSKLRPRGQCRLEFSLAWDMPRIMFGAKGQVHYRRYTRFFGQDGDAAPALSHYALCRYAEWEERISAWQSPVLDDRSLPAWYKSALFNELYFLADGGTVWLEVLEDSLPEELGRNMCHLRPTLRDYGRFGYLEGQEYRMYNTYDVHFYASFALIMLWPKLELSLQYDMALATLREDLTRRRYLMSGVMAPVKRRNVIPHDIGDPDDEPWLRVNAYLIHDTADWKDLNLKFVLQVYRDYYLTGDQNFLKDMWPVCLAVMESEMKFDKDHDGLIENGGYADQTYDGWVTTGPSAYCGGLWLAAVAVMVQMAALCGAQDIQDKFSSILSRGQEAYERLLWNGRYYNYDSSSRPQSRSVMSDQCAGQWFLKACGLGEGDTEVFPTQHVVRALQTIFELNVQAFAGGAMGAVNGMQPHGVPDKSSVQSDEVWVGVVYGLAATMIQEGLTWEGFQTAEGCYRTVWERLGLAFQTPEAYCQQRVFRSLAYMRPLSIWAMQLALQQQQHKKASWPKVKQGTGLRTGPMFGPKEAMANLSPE
Test: Competitive ABPP against β-glucosidase probe 14, GBA2+ HEK293T lysate
Assay type: biochemical
Conditions: 5 from 30 to 0 μM, 1 h at 37 °C, pH 5.8

O=S1(=O)O[C@@H]2[C@H](O)[C@@H](O)[C@H](O)[C@@H](CO)[C@@H]2O1 [Compound 5, 1,6-epi-cyclophellitol cyclosulfate]
inhibition of probe 14 labeling of GBA2: no inhibition
